The record followed here is patent publication US12187705B2, “Heteroaryl-triazole and heteroaryl-tetrazole compounds as pesticides” (Bayer Aktiengesellschaft, priority 2018, dated 2025).

What all share (type): in vivo
One experiment relates to Nilaparvata lugens. Put plainly: Nilaparvata lugens spray test. Particulars: Nilaparvata lugens, in Oryza sativa, 96 h. In short, it runs like this:
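Rice plants sprayed with compound diluted in water containing 1000 ppm emulsifier, then infested with brown planthopper. Mortality (%) scored after 4 days, 100% meaning all insects killed.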

For the next experiment, the system named is Phaedon cochleariae. Put plainly: Phaedon cochleariae spray test. The settings on record: foliar, 168 h, Chinese cabbage leaf disks, after 7 days. In short, it runs like this: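 Mortality read 7 days after infestation; 100% means every larva dead, 0% none. Larvae placed on dried Chinese cabbage leaf disks previously sprayed with compound preparation diluted in emulsifier-containing water (1000 ppm).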

For a further experiment, the system named is Diabrotica balteata. Description: Diabrotica balteata spray test. Particulars: Diabrotica balteata, 168 h; 160 μg/well, wheat seeds, after 7 days; read-out: efficacy (seedlings grown). The essentials: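 Efficacy (%) read 7 days after infesting treated seedlings with 10-20 banded cucumber beetle larvae, 100% meaning growth as in uninfected untreated control and 0% no growth. Test solutions in water containing 1000 ppm emulsifier were sprayed onto wheat seeds germinated for 1 day on agar.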

A further experiment relates to Nezara viridula. Description: Nezara viridula spray test. Particulars: in Hordeum vulgare, 96 h. In short, it runs like this:
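Barley plants infested with stink bug larvae were sprayed with compound diluted in water containing 1000 ppm emulsifier. Mortality (%) was scored after 4 days, 100% meaning all bugs killed.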

Another experiment has as its system Tetranychus urticae. Put plainly: Tetranychus urticae spray test OP-resistant. The settings on record: Tetranychus urticae, foliar, 144 h, French bean leaf disks, after 6 days. The method, then:
Tetranychus urticae—Spray Test OP-Resistant
To produce a suitable preparation of active compound, 1 part by weight of active compound is mixed with the stated amount of solvents and is diluted with water, containing an emulsifier concentration of 1000 ppm, to the desired concentration. Further test concentrations are prepared by dilution with emulsifier containing water.
French bean (Phaseolus vulgaris) leaf disks infected with all instars of the two spotted spidermite (Tetranychus urticae), are sprayed with a preparation of the active ingredient of the desired concentration.
After 6 days mortality in % is determined. 100% means all spider mites have been killed and 0% means none of the spider mites have been killed.

Experiment [1] has as its system Ctenocephalides felis. Put plainly: Ctenocephalides felis oral test. Particulars: Ctenocephalides felis, in Bos taurus, po, 48 h. In short, it runs like this: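 About 20 adult unfed fleas fed through parafilm on cattle blood containing compound (DMSO concentrate diluted in blood); blood held at 37° C., fleas at room temperature. Mortality in % scored after 2 days (100% = all killed).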

The subject of experiment [2] is Ctenocephalides felis. Description: Ctenocephalides felis in-vitro contact test adult cat flea. Particulars: Ctenocephalides felis; 5 μg/cm^2 (=500 g/ha), after 48 hours; read-out: efficacy (fleas dead or moribund). The essentials:
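Efficacy (% dead or moribund) was scored 48 h after adult Ctenocephalides felis were confined in tubes coated with the acetone-applied compound (900 ppm, 5 μg/cm^2). Moribund status was judged by failure to escape a 45-50° C heating plate within 5 minutes.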

The test system of a further experiment is Boophilus microplus. Put plainly: Boophilus microplus injection test. Particulars: Rhipicephalus microplus, 168 h, 20 μg/animal, egg deposition after 7 days, read-out: efficacy (infertile eggs). In short, it runs like this: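 Efficacy expresses the share of infertile eggs (100% all infertile, 0% all fertile), judged at 7 days or at hatching around day 42. Five adult engorged females were each injected abdominally with 1 μl of DMSO compound solution and incubated in a climate chamber.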

Another experiment concerns Rhipicephalus sanguineus. Description: Rhipicephalus sanguineus in-vitro contact test with adult brown dog ticks. The settings on record: Rhipicephalus sanguineus; 5 μg/cm^2 (=500 g/ha), after 48 hours; read-out: efficacy (ticks dead or moribund). The essentials: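 Compound in acetone coated onto inner walls of glass tubes; 900 ppm gives 5 μg/cm^2. Five to ten adult ticks held 48 h at room temperature, then heated at 45-50° C. up to 5 min; ticks unable to climb away scored dead or moribund, efficacy as % dead/moribund.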

The next experiment relates to Myzus persicae. Put plainly: Myzus persicae oral test. The settings on record: 120 h. The essentials: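 Feeding test: compound diluted in water was combined with IPL41 insect medium (33%+15% sugar) under a parafilm seal. A mixed population of green peach aphids fed through the membrane. Mortality (%) was scored after 5 days.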

Each structure is given as a SMILES string.

Turning to `CC(c1ncnn1-c1ncccn1)N(CC1CC1)C(=O)c1cncc(S(=O)(=O)C(F)(F)F)c1` (centres unmarked) [Example I-006], the mortality at 500 g/ha with Nilaparvata lugens came to 100%; with Phaedon cochleariae, 100%; with Nezara viridula, 100%; in the experiment with Tetranychus urticae, 95%. The pest or weed control at 160 µg/disc, 160 µg/well in the experiment with Diabrotica balteata worked out at 100%. This compound also displayed a mortality at 100 ppm with Ctenocephalides felis [1] of 100%. Moreover, the values for the pest or weed control at 5 µg/cm2, 5 µg/cm2 with Ctenocephalides felis [2] and in the experiment with Rhipicephalus sanguineus were 90% and 80%, respectively. The pest or weed control at 0.02 mg in the experiment with Boophilus microplus was 100%. The compound further showed a mortality at 4 ppm with Myzus persicae of 90%. Further, in the experiment on Myzus persicae, the mortality at 20 ppm is 100%.
